According to ChEMBL document CHEMBL1201862, “PubChem BioAssay data set” (2004):
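Compound exposure: 48 hours, 5 concentrations, 96-well plates. GI50 is the concentration that inhibits growth by half.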 Calls of active or inactive are those of the source. Rule as the data show it: active = GI50 up to about 1.1 µM and inactive = higher.

Experiments:
Experiment in all cases: growth of human tumour cells (NCI), 48 h
TK-10 = tested on: TK-10
A549 = tested on: A549
HL-60 = tested on: HL-60
SW-620 = tested on: SW-620
MDA-N = tested on: MDA-N
UACC-257 = tested on: UACC-257
ACHN = tested on: ACHN
K562 = tested on: K562
HT-29 = tested on: HT-29
DU-145 = tested on: DU-145
RXF 393 = tested on: RXF 393
T47D = tested on: T47D
HCC 2998 = tested on: HCC 2998
SK-OV-3 = tested on: SK-OV-3
SF-295 = tested on: SF-295
MOLT-4 = tested on: MOLT-4
MDA-MB-231 = tested on: MDA-MB-231

| Structure (SMILES) | GI50 (TK-10) | GI50 (A549) | GI50 (HL-60) | GI50 (SW-620) | GI50 (MDA-N) | GI50 (UACC-257) | GI50 (ACHN) | GI50 (K562) | GI50 (HT-29) | GI50 (DU-145) | GI50 (RXF 393) | GI50 (T47D) | GI50 (HCC 2998) | GI50 (SK-OV-3) | GI50 (SF-295) | GI50 (MOLT-4) | GI50 (MDA-MB-231) |
| --- | --- | --- | --- | --- | --- | --- | --- | --- | --- | --- | --- | --- | --- | --- | --- | --- | --- |
| S=C(S)NCC1CCC(CNC(=S)S)CC1 (centres undefined) | 22.6 µM (inactive) | > 100 µM (inactive) | 48.9 µM (inactive) | 47.5 µM (inactive) | 26.7 µM (inactive) | 26.3 µM (inactive) | 20.7 µM (inactive) | 14.2 µM (inactive) | 17.7 µM (inactive) | 26 µM (inactive) | 20 µM (inactive) | 16.3 µM (inactive) | 20.4 µM (inactive) | > 100 µM (inactive) | > 100 µM (inactive) | 29.2 µM (inactive) | 29.2 µM (inactive) |
| NNc1ccccc1Cl | > 100 µM (inactive) | > 100 µM (inactive) | 2.88 µM (inactive) | > 100 µM (inactive) | > 100 µM (inactive) | > 100 µM (inactive) | > 100 µM (inactive) | 4.34 µM (inactive) | > 100 µM (inactive) | > 100 µM (inactive) | > 100 µM (inactive) | 59.8 µM (inactive) | > 100 µM (inactive) | > 100 µM (inactive) | 27.3 µM (inactive) | 36.2 µM (inactive) | > 100 µM (inactive) |
| Cc1nc(-c2ccc(/N=C/c3ccc(N(CCOS(C)(=O)=O)CCOS(C)(=O)=O)cc3C)cc2)cs1 | 55.5 µM (inactive) | 11.3 µM (inactive) | 3.94 µM (inactive) | 67.9 µM (inactive) | 46 µM (inactive) | 22.8 µM (inactive) | 3.82 µM (inactive) | 26.5 µM (inactive) | 30.3 µM (inactive) | 11.5 µM (inactive) | 25.1 µM (inactive) | 7.23 µM (inactive) | 30 µM (inactive) | 26.5 µM (inactive) | 37.7 µM (inactive) | 2.09 µM (inactive) | 72.8 µM (inactive) |
| O=c1c2ccccc2n2nnc3ccc(NCCCNCCNCCCNc4ccc5nnn6c7ccccc7c(=O)c4c56)c1c32 | 0.832 µM (active) | 0.612 µM (active) | 1.1 µM (active) | 0.251 µM (active) | 1.38 µM (inactive) | 8.73 µM (inactive) | 0.986 µM (active) | 0.215 µM (active) | 0.121 µM (active) | 5.77 µM (inactive) | 1.37 µM (inactive) | > 37.4 µM (inactive) | 0.308 µM (active) | > 20.3 µM (inactive) | 5.89 µM (inactive) | 0.0582 µM (active) | 1.01 µM (active) |
| CN/C(N)=N/N=C1/C(=O)Nc2ccccc21 | > 100 µM (inactive) | > 100 µM (inactive) | > 100 µM (inactive) | > 100 µM (inactive) | > 100 µM (inactive) | > 100 µM (inactive) | > 100 µM (inactive) | > 100 µM (inactive) | > 100 µM (inactive) | > 100 µM (inactive) | > 100 µM (inactive) | > 100 µM (inactive) | > 100 µM (inactive) | > 100 µM (inactive) | > 100 µM (inactive) | > 100 µM (inactive) | > 100 µM (inactive) |
| O/N=C1/CCCc2nonc21 | > 100 µM (inactive) | > 100 µM (inactive) | > 100 µM (inactive) | > 100 µM (inactive) | > 100 µM (inactive) | > 100 µM (inactive) | > 100 µM (inactive) | > 100 µM (inactive) | > 100 µM (inactive) | > 100 µM (inactive) | > 100 µM (inactive) | > 100 µM (inactive) | > 100 µM (inactive) | > 100 µM (inactive) | > 100 µM (inactive) | > 100 µM (inactive) | > 100 µM (inactive) |
| c1ccc(CNCCCNCCCCNCCCNCc2ccccc2)cc1 | 5.69 µM (inactive) | 14.4 µM (inactive) | 0.656 µM (active) | 1.8 µM (inactive) | 1.83 µM (inactive) | 15 µM (inactive) | 6.05 µM (inactive) | 1.67 µM (inactive) | 1.92 µM (inactive) | 12.8 µM (inactive) | 12.4 µM (inactive) | 10.8 µM (inactive) | 5.66 µM (inactive) | 15.7 µM (inactive) | 15.1 µM (inactive) | 0.834 µM (active) | 6.5 µM (inactive) |
| N=C(N)C(/N=N\c1ccccc1)C(N)=O (centres undefined) | 96.4 µM (inactive) | > 100 µM (inactive) | > 100 µM (inactive) | > 100 µM (inactive) | > 100 µM (inactive) | > 100 µM (inactive) | > 100 µM (inactive) | 35.9 µM (inactive) | > 100 µM (inactive) | > 100 µM (inactive) | 87.3 µM (inactive) | 57.7 µM (inactive) | > 100 µM (inactive) | > 100 µM (inactive) | 62.8 µM (inactive) | > 100 µM (inactive) | > 100 µM (inactive) |
| CO[C@H](c1ccccc1)[C@H](O)[C@](O)(c1ccccc1)P(=O)(OC)OC | > 100 µM (inactive) | > 100 µM (inactive) | > 100 µM (inactive) | > 100 µM (inactive) | > 100 µM (inactive) | > 100 µM (inactive) | > 100 µM (inactive) | > 100 µM (inactive) | > 100 µM (inactive) | > 100 µM (inactive) | > 100 µM (inactive) | > 100 µM (inactive) | > 100 µM (inactive) | > 100 µM (inactive) | > 100 µM (inactive) | > 100 µM (inactive) | > 100 µM (inactive) |
| O=C(CNc1ccc([N+](=O)[O-])cc1)Nn1c(-c2ccccc2)nc2ccccc2c1=O | 6.15 µM (inactive) | 8.77 µM (inactive) | 2.26 µM (inactive) | 2.39 µM (inactive) | 3.49 µM (inactive) | 7.78 µM (inactive) | 3.95 µM (inactive) | 1.91 µM (inactive) | 3.06 µM (inactive) | 8.91 µM (inactive) | 2.82 µM (inactive) | 3.11 µM (inactive) | 9.02 µM (inactive) | 3.97 µM (inactive) | 14.5 µM (inactive) | 1.89 µM (inactive) | 3.52 µM (inactive) |
| CCC/C(Cl)=N\OC(=O)Nc1cccc(C(F)(F)F)c1 | 15.4 µM (inactive) | 19.7 µM (inactive) | 1.88 µM (inactive) | 2.81 µM (inactive) | 17.6 µM (inactive) | 17.5 µM (inactive) | 16.3 µM (inactive) | 2.28 µM (inactive) | 21.8 µM (inactive) | 13.2 µM (inactive) | 19.6 µM (inactive) | 23.9 µM (inactive) | 18.2 µM (inactive) | 13.6 µM (inactive) | 13.5 µM (inactive) | 2.94 µM (inactive) | 17 µM (inactive) |
| N#CCCN(CCCN(C(=O)Nc1ccc(NC(=O)N(CCCN(CCC#N)C(N)=O)c2ccccc2)cc1)c1ccccc1)C(N)=O | > 100 µM (inactive) | > 100 µM (inactive) | > 100 µM (inactive) | > 100 µM (inactive) | > 100 µM (inactive) | > 100 µM (inactive) | > 100 µM (inactive) | > 100 µM (inactive) | > 100 µM (inactive) | > 100 µM (inactive) | > 100 µM (inactive) | > 100 µM (inactive) | > 100 µM (inactive) | > 100 µM (inactive) | > 100 µM (inactive) | > 100 µM (inactive) | > 100 µM (inactive) |
